# Source: patent publication US6458748B1, “Di- or tri-fluoromethanesulfonyl anilide derivatives, process for the preparation of them and herbicides containing them as the active ingredient” (Ihara Chemical Industry Co., Ltd., priority 1998, dated 2002)
# Experiments:
# Sagittaria pygmaea Miq. [1] = assay: Test 4 paddy pot herbicidal effect; details: applied next day, 28th day from application
# [2] = system: Monochoria vaginalis (Burm. f.) Presl var. plantaginea (Roxb.) Solms-Laub.; assay: Test 1 paddy pot herbicidal effect, water surface application; type: in vivo; details: applied day after sowing, evaluated 28 days later
# Description: (§1) Standard of herbicidal effect (level of suppression of development and growth) […] Herbicidal effect of 90% or more, injury to paddy rice […] Herbicidal effect of 70% or more to less than 90%, injury to paddy rice […] 2: […]
# [3] = system: Echinochloa oryzicola vasing.; assay: as above; type: in vivo; details: applied day after sowing, evaluated 28 days later
# Description: as §1
# [4] = system: Echindchloa oryzicola Vasing. (Ec); assay: Test 5 herbicidal effect by application stage; details: 28th day from application
# [5] = system: Echinochloa oryzicola vasing.; assay: Test 4 paddy pot herbicidal effect; details: applied next day, 28th day from application
# Cyperus serotinus Rottb. = assay: Test 4 paddy pot herbicidal effect; details: applied next day, 28th day from application
# [6] = system: Oryza sativa L. (paddy rice); assay: Test 4 injury to paddy rice; details: two-leaf stage seedlings, 28th day from application
# [7] = system: Echinochloa oryzicola vasing.; assay: Test 3 herbicidal effect, application before germination or at 3-leaf stage; details: 28th day from application
# [8] = system: Monochoria vaginalis (Burm. f.) Presl var. plantaginea (Roxb.) Solms-Laub.; assay: Test 2 paddy pot herbicidal effect with water drainage and feeding; type: in vivo; details: water drainage and feeding 2 cm per day for two days, 28th day
# Procedure: (§2) Further, a tuber of Sagittaria pygmaea Miq. was buried. […] For two days starting from the next day, water drainage and feeding each of 2 cm in depth per day were conducted.
# Sagittaria pygmaea Miq. [9] = assay: as above; type: in vivo; details: water drainage and feeding 2 cm per day for two days, 28th day
# Procedure: as §2
compound,measurement,setting,value
"2-[(4,6-dimethoxypyrimidine-2-yl)hydroxymethyl]-6-methoxymethyltrifluoromethanesulfonyl anilide [Example 4]",Herbicidal effect Sa,Sagittaria pygmaea Miq. [1]; 0.6 g/10 ares,"4 (Herbicidal effect of 70% or more to less than 90%, injury to paddy rice)"
same,Herbicidal effect Sa,Sagittaria pygmaea Miq. [1]; 1.3 g/10 ares,"5 (Herbicidal effect of 90% or more, injury to paddy rice)"
same,Herbicidal effect Sa,Sagittaria pygmaea Miq. [1]; 2.5 g/10 ares,"5 (Herbicidal effect of 90% or more, injury to paddy rice)"
same,Herbicidal effect Sa,Sagittaria pygmaea Miq. [1]; 5.0 g/10 ares,"5 (Herbicidal effect of 90% or more, injury to paddy rice)"
same,Herbicidal effect Mo,[2]; 0.4 g/10 ares,"3 (Herbicidal effect of 50% or more to less than 70%, injury to paddy rice)"
same,Herbicidal effect Mo,[2]; 1.6 g/10 ares,"5 (Herbicidal effect of 90% or more, injury to paddy rice)"
same,Herbicidal effect Mo,[2]; 6.3 g/10 ares,"5 (Herbicidal effect of 90% or more, injury to paddy rice)"
same,Herbicidal effect Mo,[2]; 25.0 g/10 ares,"5 (Herbicidal effect of 90% or more, injury to paddy rice)"
same,Herbicidal effect Ec,[3]; 0.4 g/10 ares,"2 (Herbicidal effect of 30% or more to less than 50%, injury to paddy rice)"
same,Herbicidal effect Ec,[3]; 1.6 g/10 ares,"5 (Herbicidal effect of 90% or more, injury to paddy rice)"
same,Herbicidal effect Ec,[3]; 6.3 g/10 ares,"5 (Herbicidal effect of 90% or more, injury to paddy rice)"
same,Herbicidal effect Ec,[3]; 25.0 g/10 ares,"5 (Herbicidal effect of 90% or more, injury to paddy rice)"
same,Herbicidal effect (Ec) Application stage 1-leaf,[4]; 1.3 g/10 ares,"4 (Herbicidal effect of 70% or more to less than 90%, injury to paddy rice)"
same,Herbicidal effect (Ec) Application stage 2-leaf,[4]; 1.3 g/10 ares,"3 (Herbicidal effect of 50% or more to less than 70%, injury to paddy rice)"
same,Herbicidal effect (Ec) Application stage 3-leaf,[4]; 1.3 g/10 ares,"3 (Herbicidal effect of 50% or more to less than 70%, injury to paddy rice)"
same,Herbicidal effect (Ec) Application stage 1-leaf,[4]; 2.5 g/10 ares,"5 (Herbicidal effect of 90% or more, injury to paddy rice)"
same,Herbicidal effect (Ec) Application stage 2-leaf,[4]; 2.5 g/10 ares,"5 (Herbicidal effect of 90% or more, injury to paddy rice)"
same,Herbicidal effect (Ec) Application stage 3-leaf,[4]; 2.5 g/10 ares,"5 (Herbicidal effect of 90% or more, injury to paddy rice)"
same,Herbicidal effect (Ec) Application stage 1-leaf,[4]; 5.0 g/10 ares,"5 (Herbicidal effect of 90% or more, injury to paddy rice)"
same,Herbicidal effect (Ec) Application stage 2-leaf,[4]; 5.0 g/10 ares,"5 (Herbicidal effect of 90% or more, injury to paddy rice)"
same,Herbicidal effect (Ec) Application stage 3-leaf,[4]; 5.0 g/10 ares,"5 (Herbicidal effect of 90% or more, injury to paddy rice)"
same,Herbicidal effect Ec,[5]; 0.6 g/10 ares,"2 (Herbicidal effect of 30% or more to less than 50%, injury to paddy rice)"
same,Herbicidal effect Ec,[5]; 1.3 g/10 ares,"4 (Herbicidal effect of 70% or more to less than 90%, injury to paddy rice)"
same,Herbicidal effect Ec,[5]; 2.5 g/10 ares,"5 (Herbicidal effect of 90% or more, injury to paddy rice)"
same,Herbicidal effect Ec,[5]; 5.0 g/10 ares,"5 (Herbicidal effect of 90% or more, injury to paddy rice)"
same,Herbicidal effect Cy,Cyperus serotinus Rottb.; 0.6 g/10 ares,"4 (Herbicidal effect of 70% or more to less than 90%, injury to paddy rice)"
same,Herbicidal effect Cy,Cyperus serotinus Rottb.; 1.3 g/10 ares,"5 (Herbicidal effect of 90% or more, injury to paddy rice)"
same,Herbicidal effect Cy,Cyperus serotinus Rottb.; 2.5 g/10 ares,"5 (Herbicidal effect of 90% or more, injury to paddy rice)"
same,Herbicidal effect Cy,Cyperus serotinus Rottb.; 5.0 g/10 ares,"5 (Herbicidal effect of 90% or more, injury to paddy rice)"
"COc1cc(OC)nc(C(O)c2ccccc2NS(=O)(=O)C(F)(F)F)n1 (centres unmarked) [Comparative Compound, 2-[(4,6-dimethoxypyrimidine-2-yl)hydroxymethyl]-N-trifluoromethanes ulfonyl anilide, reference compound]",Herbicidal effect Sa,Sagittaria pygmaea Miq. [1]; 0.6 g/10 ares,"5 (Herbicidal effect of 90% or more, injury to paddy rice)"
same,Herbicidal effect Sa,Sagittaria pygmaea Miq. [1]; 1.3 g/10 ares,"5 (Herbicidal effect of 90% or more, injury to paddy rice)"
same,Herbicidal effect Sa,Sagittaria pygmaea Miq. [1]; 2.5 g/10 ares,"5 (Herbicidal effect of 90% or more, injury to paddy rice)"
same,Herbicidal effect Sa,Sagittaria pygmaea Miq. [1]; 5.0 g/10 ares,"5 (Herbicidal effect of 90% or more, injury to paddy rice)"
same,Herbicidal effect Mo,[2]; 0.4 g/10 ares,"4 (Herbicidal effect of 70% or more to less than 90%, injury to paddy rice)"
same,Herbicidal effect Mo,[2]; 1.6 g/10 ares,"5 (Herbicidal effect of 90% or more, injury to paddy rice)"
same,Herbicidal effect Mo,[2]; 6.3 g/10 ares,"5 (Herbicidal effect of 90% or more, injury to paddy rice)"
same,Herbicidal effect Mo,[2]; 25.0 g/10 ares,"5 (Herbicidal effect of 90% or more, injury to paddy rice)"
same,Herbicidal effect Ec,[3]; 0.4 g/10 ares,"0 (Herbicidal effect of less than 10%, injury to paddy rice)"
same,Herbicidal effect Ec,[3]; 1.6 g/10 ares,"1 (Herbicidal effect of 10% or more to less than 30%, injury to paddy rice)"
same,Herbicidal effect Ec,[3]; 6.3 g/10 ares,"3 (Herbicidal effect of 50% or more to less than 70%, injury to paddy rice)"
same,Herbicidal effect Ec,[3]; 25.0 g/10 ares,"4 (Herbicidal effect of 70% or more to less than 90%, injury to paddy rice)"
same,Herbicidal effect (Ec) Application stage 1-leaf,[4]; 1.3 g/10 ares,"0 (Herbicidal effect of less than 10%, injury to paddy rice)"
same,Herbicidal effect (Ec) Application stage 2-leaf,[4]; 1.3 g/10 ares,"0 (Herbicidal effect of less than 10%, injury to paddy rice)"
same,Herbicidal effect (Ec) Application stage 3-leaf,[4]; 1.3 g/10 ares,"0 (Herbicidal effect of less than 10%, injury to paddy rice)"
same,Herbicidal effect (Ec) Application stage 1-leaf,[4]; 2.5 g/10 ares,"1 (Herbicidal effect of 10% or more to less than 30%, injury to paddy rice)"
same,Herbicidal effect (Ec) Application stage 2-leaf,[4]; 2.5 g/10 ares,"0 (Herbicidal effect of less than 10%, injury to paddy rice)"
same,Herbicidal effect (Ec) Application stage 3-leaf,[4]; 2.5 g/10 ares,"0 (Herbicidal effect of less than 10%, injury to paddy rice)"
same,Herbicidal effect (Ec) Application stage 1-leaf,[4]; 5.0 g/10 ares,"3 (Herbicidal effect of 50% or more to less than 70%, injury to paddy rice)"
same,Herbicidal effect (Ec) Application stage 2-leaf,[4]; 5.0 g/10 ares,"2 (Herbicidal effect of 30% or more to less than 50%, injury to paddy rice)"
same,Herbicidal effect (Ec) Application stage 3-leaf,[4]; 5.0 g/10 ares,"2 (Herbicidal effect of 30% or more to less than 50%, injury to paddy rice)"
same,Injury to rice Or,[6]; 0.6 g/10 ares,"0 (Herbicidal effect of less than 10%, injury to paddy rice)"
same,Injury to rice Or,[6]; 1.3 g/10 ares,"0 (Herbicidal effect of less than 10%, injury to paddy rice)"
same,Injury to rice Or,[6]; 2.5 g/10 ares,"0 (Herbicidal effect of less than 10%, injury to paddy rice)"
same,Injury to rice Or,[6]; 5.0 g/10 ares,"1 (Herbicidal effect of 10% or more to less than 30%, injury to paddy rice)"
same,Herbicidal effect (Ec) Application at 3-leaf stage,[7]; 0.3 g/10 ares,"0 (Herbicidal effect of less than 10%, injury to paddy rice)"
same,Herbicidal effect (Ec) Application before germination,[7]; 0.3 g/10 ares,"0 (Herbicidal effect of less than 10%, injury to paddy rice)"
same,Herbicidal effect (Ec) Application at 3-leaf stage,[7]; 0.6 g/10 ares,"0 (Herbicidal effect of less than 10%, injury to paddy rice)"
same,Herbicidal effect (Ec) Application before germination,[7]; 0.6 g/10 ares,"0 (Herbicidal effect of less than 10%, injury to paddy rice)"
same,Herbicidal effect (Ec) Application at 3-leaf stage,[7]; 1.3 g/10 ares,"0 (Herbicidal effect of less than 10%, injury to paddy rice)"
same,Herbicidal effect (Ec) Application before germination,[7]; 1.3 g/10 ares,"1 (Herbicidal effect of 10% or more to less than 30%, injury to paddy rice)"
same,Herbicidal effect (Ec) Application at 3-leaf stage,[7]; 2.5 g/10 ares,"0 (Herbicidal effect of less than 10%, injury to paddy rice)"
same,Herbicidal effect (Ec) Application before germination,[7]; 2.5 g/10 ares,"2 (Herbicidal effect of 30% or more to less than 50%, injury to paddy rice)"
same,Herbicidal effect (Ec) Application at 3-leaf stage,[7]; 5.0 g/10 ares,"1 (Herbicidal effect of 10% or more to less than 30%, injury to paddy rice)"
same,Herbicidal effect (Ec) Application before germination,[7]; 5.0 g/10 ares,"3 (Herbicidal effect of 50% or more to less than 70%, injury to paddy rice)"
same,Herbicidal effect Ec,[8]; 0.6 g/10 ares,"0 (Herbicidal effect of less than 10%, injury to paddy rice)"
same,Herbicidal effect Ec,[8]; 1.3 g/10 ares,"1 (Herbicidal effect of 10% or more to less than 30%, injury to paddy rice)"
same,Herbicidal effect Ec,[8]; 2.5 g/10 ares,"3 (Herbicidal effect of 50% or more to less than 70%, injury to paddy rice)"
same,Herbicidal effect Ec,[8]; 5.0 g/10 ares,"5 (Herbicidal effect of 90% or more, injury to paddy rice)"
same,Herbicidal effect Sc,Sagittaria pygmaea Miq. [9]; 0.6 g/10 ares,"0 (Herbicidal effect of less than 10%, injury to paddy rice)"
same,Herbicidal effect Sc,Sagittaria pygmaea Miq. [9]; 1.3 g/10 ares,"2 (Herbicidal effect of 30% or more to less than 50%, injury to paddy rice)"
same,Herbicidal effect Sc,Sagittaria pygmaea Miq. [9]; 2.5 g/10 ares,"4 (Herbicidal effect of 70% or more to less than 90%, injury to paddy rice)"
same,Herbicidal effect Sc,Sagittaria pygmaea Miq. [9]; 5.0 g/10 ares,"5 (Herbicidal effect of 90% or more, injury to paddy rice)"
same,Herbicidal effect Ec,[5]; 0.6 g/10 ares,"0 (Herbicidal effect of less than 10%, injury to paddy rice)"
same,Herbicidal effect Ec,[5]; 1.3 g/10 ares,"1 (Herbicidal effect of 10% or more to less than 30%, injury to paddy rice)"
same,Herbicidal effect Ec,[5]; 2.5 g/10 ares,"2 (Herbicidal effect of 30% or more to less than 50%, injury to paddy rice)"
same,Herbicidal effect Ec,[5]; 5.0 g/10 ares,"4 (Herbicidal effect of 70% or more to less than 90%, injury to paddy rice)"
same,Herbicidal effect Cy,Cyperus serotinus Rottb.; 0.6 g/10 ares,"5 (Herbicidal effect of 90% or more, injury to paddy rice)"
same,Herbicidal effect Cy,Cyperus serotinus Rottb.; 1.3 g/10 ares,"5 (Herbicidal effect of 90% or more, injury to paddy rice)"
same,Herbicidal effect Cy,Cyperus serotinus Rottb.; 2.5 g/10 ares,"5 (Herbicidal effect of 90% or more, injury to paddy rice)"
same,Herbicidal effect Cy,Cyperus serotinus Rottb.; 5.0 g/10 ares,"5 (Herbicidal effect of 90% or more, injury to paddy rice)"
